Assay results reported in patent US7196080B2, “Phenylpyridinecarbonylpiperazinederivative” (Astellas Pharma Inc., priority 2001, dated 2007).

What was measured:
PDE2 = PDE2 (Homo sapiens, UniProt O00408); assay: PDE2 inhibitory activity; assay type: biochemical; conditions: in the same concentration (as the PDE4 IC50, 12 nM or less)
Method: (§1) A concentration of test compound which inhibits 50% of the metabolic activity of PDE4 was defined as IC50 and calculated for each compound. By applying the above test method and the method described in WO 97/19078, inhibitory activity against PDE1, PDE2, PDE3 and PDE5 was measured similarly.

PDE5 = PDE5 (Homo sapiens, UniProt O76074); assay: PDE5 inhibitory activity; assay type: biochemical; conditions: in the same concentration (as the PDE4 IC50, 12 nM or less)
Method: as §1

PDE1 = PDE1 inhibitory activity; assay type: biochemical; conditions: in the same concentration (as the PDE4 IC50, 12 nM or less)
Method: as §1

PDE3 = PDE3 inhibitory activity; assay type: biochemical; conditions: in the same concentration (as the PDE4 IC50, 12 nM or less)
Method: as §1

Sequence of PDE2 (O00408 whole entry): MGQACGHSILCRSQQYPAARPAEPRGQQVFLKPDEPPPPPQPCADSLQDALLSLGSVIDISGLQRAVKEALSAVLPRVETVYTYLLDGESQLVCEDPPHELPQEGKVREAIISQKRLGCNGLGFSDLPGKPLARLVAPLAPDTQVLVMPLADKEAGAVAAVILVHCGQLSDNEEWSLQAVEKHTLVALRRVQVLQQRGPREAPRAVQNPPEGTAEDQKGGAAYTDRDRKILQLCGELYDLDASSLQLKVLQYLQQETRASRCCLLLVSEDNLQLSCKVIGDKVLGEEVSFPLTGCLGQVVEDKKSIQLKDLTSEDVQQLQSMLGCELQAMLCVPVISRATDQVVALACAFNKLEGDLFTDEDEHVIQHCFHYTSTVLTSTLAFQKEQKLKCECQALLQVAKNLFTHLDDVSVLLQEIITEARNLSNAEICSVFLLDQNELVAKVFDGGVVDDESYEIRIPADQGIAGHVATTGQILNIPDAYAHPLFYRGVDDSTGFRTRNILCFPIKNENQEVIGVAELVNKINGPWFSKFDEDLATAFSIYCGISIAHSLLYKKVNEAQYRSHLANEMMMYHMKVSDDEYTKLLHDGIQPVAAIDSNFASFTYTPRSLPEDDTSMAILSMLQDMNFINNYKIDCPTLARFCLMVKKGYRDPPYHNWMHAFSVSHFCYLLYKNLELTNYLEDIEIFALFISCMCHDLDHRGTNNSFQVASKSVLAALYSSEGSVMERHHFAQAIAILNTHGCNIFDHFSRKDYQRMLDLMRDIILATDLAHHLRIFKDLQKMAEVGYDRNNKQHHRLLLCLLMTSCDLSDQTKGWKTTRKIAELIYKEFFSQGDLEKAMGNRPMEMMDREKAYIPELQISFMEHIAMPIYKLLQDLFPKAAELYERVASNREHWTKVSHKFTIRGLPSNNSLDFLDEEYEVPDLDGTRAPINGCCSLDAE

Row | Compound | inhibitory activity against PDE2 (PDE2) | inhibitory activity against PDE5 (PDE5) | melting point [°C] | inhibitory activity against PDE1 (PDE1) | inhibitory activity against PDE3 (PDE3)
1 | COc1ccc(-c2cccc(C(=O)N3CCN(c4ccc(C(C)=O)cc4)CC3)n2)cc1OCC1CC1 (hydrate or solvate) [Example 112, 1-(4-{4-[6-(3-cyclopropylmethoxy-4-methoxyphenyl)pyridine-2-carbonyl]piperazin-1-yl}phenyl)ethanone] |  |  | 142 to 144 |  | 
2 | COc1ccc(-c2cccc(C(=O)N3CCN(c4ccc(C(C)=O)cc4)CC3)n2)cc1OC(F)F [Example 114] |  |  | 160 to 162 |  | 
3 | COc1ccc(N2CCN(C(=O)c3cccc(-c4ccc(OC)c(OC)c4)n3)CC2)cc1 [Example 2, 1-[6-(3,4-dimethoxyphenyl)pyridine-2-carbonyl]-4-(4-methoxyphenyl)piperazine] | hardly exhibited inhibitory activity | hardly exhibited inhibitory activity | 169 to 172 | hardly exhibited inhibitory activity | hardly exhibited inhibitory activity
4 | 4-{2-[(6-{4-]6-(3,4-dimethoxyphenyl)pyridine-2-carbonyl)piperazin-1-yl}-3-pyridyl}oxylethyl)morpholine [Example 99] | hardly exhibited inhibitory activity | hardly exhibited inhibitory activity |  | hardly exhibited inhibitory activity | hardly exhibited inhibitory activity
5 | COc1ccc(-c2cccc(C(=O)N3CCN(c4ccc(C(C)=O)cc4)CC3)n2)cc1Cl [Example 113] |  |  | 168 to 170 |  | 
6 | CCN(CC)CCC(=O)Nc1ccc(N2CCN(C(=O)c3cccc(-c4ccc(OC)c(OC)c4)n3)CC2)cc1 [Example 45, 3-diethylamino-4′-{4-[6-(3,4-dimethoxyphenyl)pyridine-2-carbonyl]piperazin-1-yl}propananilide] | hardly exhibited inhibitory activity | hardly exhibited inhibitory activity | 131 to 134 | hardly exhibited inhibitory activity | hardly exhibited inhibitory activity
7 | COc1ccc(-c2cccc(C(=O)N3CCN(c4ccc(N5CCOCC5)cc4)CC3)n2)cc1OC [Example 15, 4-(4-{4-[6-(3,4-dimethoxyphenyl)pyridine-2-carbonyl]piperazin-1-yl)phenyl)morpholine] | hardly exhibited inhibitory activity | hardly exhibited inhibitory activity | 129 to 130 | hardly exhibited inhibitory activity | hardly exhibited inhibitory activity

The next lines start with results.

Row | inhibitory activity against PDE2 (PDE2) | inhibitory activity against PDE5 (PDE5) | melting point [°C] | Compound | inhibitory activity against PDE1 (PDE1) | inhibitory activity against PDE3 (PDE3)
8 | hardly exhibited inhibitory activity | hardly exhibited inhibitory activity | 161 to 163 | COc1ccc(-c2cccc(C(=O)N3CCN(c4ccc(C(C)=O)cc4)CC3)n2)cc1OC [Example 32] | hardly exhibited inhibitory activity | hardly exhibited inhibitory activity
9 | hardly exhibited inhibitory activity | hardly exhibited inhibitory activity | 143 to 144 | COc1ccc(-c2cccc(C(=O)N3CCN(c4ccc(OCCN5CCC(O)CC5)cc4)CC3)n2)cc1OC [Example 95, 1-[2-(4-{4-[6-(3,4-dimethoxyphenyl)pyridine-2-carbonyl]piperazin-1-yl}phenoxy)ethyl]piperidin-4-ol] | hardly exhibited inhibitory activity | hardly exhibited inhibitory activity
10 |  |  | 168 to 170 | COc1ccc(-c2cccc(C(=O)N3CCN(c4ccc(NS(C)(=O)=O)cc4)CC3)n2)cc1OC [Example 16, 4′-{4-[6-(3,4-dimethoxyphenyl)pyridine-2-carbonyl]piperazin-1-yl}methanesulfonanilide] |  | 
11 | hardly exhibited inhibitory activity | hardly exhibited inhibitory activity | 144 to 145 | COc1ccc(-c2cccc(C(=O)N3CCN(c4cccc(Br)n4)CC3)n2)cc1OC [Example 77, 1-(6-bromo-2-pyridyl)-4-[6-(3,4-dimethoxyphenyl)pyridine-2-carbonyl]piperazine] | hardly exhibited inhibitory activity | hardly exhibited inhibitory activity
12 |  |  | 168 to 170 | COc1ccc(-c2cccc(C(=O)N3CCN(c4ccc(C(C)=O)cc4)CC3)n2)cc1F [Example 115] |  | 
13 | hardly exhibited inhibitory activity | hardly exhibited inhibitory activity |  | COc1ccc(-c2cccc(C(=O)N3CCN(c4ccc(C(C)=O)cc4)CC3)n2)cc1OCC1CC1 [Example 112, 1-(4-{4-[6-(3-cyclopropylmethoxy-4-methoxyphenyl)pyridine-2-carbonyl]piperazin-1-yl}phenyl)ethanone] | hardly exhibited inhibitory activity | hardly exhibited inhibitory activity
14 | hardly exhibited inhibitory activity | hardly exhibited inhibitory activity | 201 to 203 | COc1ccc(-c2cccc(C(=O)N3CCN(c4ccc(NC(C)=O)cc4)CC3)n2)cc1OC [Example 43, 4′-{4-[6-(3,4-dimethoxyphenyl)pyridine-2-carbonyl]piperazin-1-yl}acetanilide] | hardly exhibited inhibitory activity | hardly exhibited inhibitory activity
15 |  |  | 164 to 165 | COc1ccc(-c2cccc(C(=O)N3CCN(c4ccc(N)cc4)CC3)n2)cc1OC [Example 9, 1-[6-(3,4-dimethoxyphenyl)pyridine-2-carbonyl]-4-(4-aminophenyl) piperazine] |  | 
16 |  |  | 237 to 240 | COc1ccc(-c2cccc(C(=O)N3CCN(c4ccc(C(N)=O)cc4)CC3)n2)cc1OC [Example 12, 4-{4-[6-(3,4-dimethoxyphenyl)pyridine-2-carbonyl]piperazin-1-yl}benzamide] |  | 
17 | hardly exhibited inhibitory activity | hardly exhibited inhibitory activity | 182 to 183 | COc1ccc(-c2cccc(C(=O)N3CCN(c4ccc(OCc5cc[n+]([O-])cc5)cc4)CC3)n2)cc1OC [Example 10, 1-[6-(3,4-dimethoxyphenyl)pyridine-2-carbonyl]-4-[4-(1-oxido-4-pyridylmethoxy)phenyl]piperazine] | hardly exhibited inhibitory activity | hardly exhibited inhibitory activity
